Source: patent US4454126A, “Phosphoramide derivatives and medicines containing the same” (priority 1981, dated 1984)

Legend:
[1] = target: T1, Jack bean urease (Canavalia ensiformis, UniProt P07374); test: Urease inhibition effects - Jack bean urease; assay type: biochemical, Jack beans; conditions: read-out: 50% Urease inhibition conc. I50
T1 construct: Urease extracted from Jack beans and then purified; from tissue; host or cells: Jack beans
Protocol: (§1) Urease extracted from Jack beans and then purified and urease produced by Proteus mirabilis were used. The molar concentration of the test compound that inhibited 50% of the urease present was determined by the method of Kobashi et al, Biochim. Biophys. Acta, 227, 429-441 (1971), and the method of Okuda et al, Saishin Igaku (The Latest Medical Science) 21(3), 622-627 (1966).

[2] = target: T2, urease produced by Proteus mirabilis (Proteus mirabilis, UniProt P17086); test: Urease inhibition effects - Proteus mirabilis urease, intact cell; assay type: cell-based; conditions: read-out: 50% Urease inhibition conc. I50
T2 construct: intact Proteus mirabilis cells and cell-free preparation
Protocol: as §1

[3] = target: T2, urease produced by Proteus mirabilis; test: Urease inhibition effects - Proteus mirabilis urease, cell free; assay type: biochemical; conditions: read-out: 50% Urease inhibition conc. I50
Protocol: as §1

[4] = Rate of migration into urine; conditions: rat, in vivo, po; 50 mg/kg perorally, S.D. rats, urine excreted for 24 hrs; read-out: Rate of migration into urine, Average ± S.E.
Protocol: 50 mg/kg of a test compound was administered perorally to S.D. rats weighing around 200 g. The urease-inhibition capacity of urine excreted for 24 hrs. thereafter was measured. The rate of migration into urine of each test compound was determined by the method of Kobashi et al, Yakugaku Zasshi 93(12), 1564-1572 (1973) and J. Biochim. 83, 287-293 (1973).

[5] = test system: Proteus mirabilis; test: Inhibition of the formation of vesical calculi in rats infected with Proteus mirabilis; assay type: in vivo, Female S.D. rats; conditions: peroral, five days from four days after inoculation, none: 34.5 ± 2.6 mg
Source text: Female S.D. rats weighing about 200 g were inoculated with Proteus mirabilis in their bladders to cause infection. Four days after the inoculation peroral administration of a test compound was begun and the administration was continued for five days. The calculi formed in the bladder in each rat were weighed.

[6] = Acute toxicity; assay type: in vivo, S.D. rats; conditions: peroral; for LD50: rat, in vivo, po, in 0.5% carboxymethylcellulose
Source text: Acute toxicities of test compounds were examined by the peroral administration of the test compounds, suspended in 0.5% carboxymethylcellulose, to male and female S.D. rats (8 weeks old).

T2 sequence (P17086 whole entry): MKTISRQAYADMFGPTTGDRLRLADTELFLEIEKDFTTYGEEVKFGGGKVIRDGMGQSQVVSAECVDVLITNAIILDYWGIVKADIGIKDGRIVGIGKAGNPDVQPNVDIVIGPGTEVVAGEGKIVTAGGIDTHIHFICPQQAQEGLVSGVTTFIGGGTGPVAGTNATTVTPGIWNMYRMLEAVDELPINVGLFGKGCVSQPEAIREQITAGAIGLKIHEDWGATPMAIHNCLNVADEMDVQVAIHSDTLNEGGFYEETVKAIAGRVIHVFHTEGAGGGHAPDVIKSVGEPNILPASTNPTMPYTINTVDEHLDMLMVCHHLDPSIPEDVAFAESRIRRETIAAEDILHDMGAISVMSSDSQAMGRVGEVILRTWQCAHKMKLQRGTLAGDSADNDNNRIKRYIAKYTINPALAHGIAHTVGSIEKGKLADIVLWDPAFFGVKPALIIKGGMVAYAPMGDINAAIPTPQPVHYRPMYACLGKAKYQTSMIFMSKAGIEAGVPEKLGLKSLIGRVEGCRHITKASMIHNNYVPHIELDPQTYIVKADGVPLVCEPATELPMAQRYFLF
T2 sequence (P17088 whole entry, further chain): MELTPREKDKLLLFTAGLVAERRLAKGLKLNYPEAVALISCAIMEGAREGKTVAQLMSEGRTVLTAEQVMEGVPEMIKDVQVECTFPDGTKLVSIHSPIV
T2 sequence (P17087 whole entry, further chain): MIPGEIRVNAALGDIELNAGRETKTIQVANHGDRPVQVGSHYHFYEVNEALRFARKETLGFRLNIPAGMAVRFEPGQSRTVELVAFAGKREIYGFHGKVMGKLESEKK
T1 sequence (P07374 whole entry, looked up): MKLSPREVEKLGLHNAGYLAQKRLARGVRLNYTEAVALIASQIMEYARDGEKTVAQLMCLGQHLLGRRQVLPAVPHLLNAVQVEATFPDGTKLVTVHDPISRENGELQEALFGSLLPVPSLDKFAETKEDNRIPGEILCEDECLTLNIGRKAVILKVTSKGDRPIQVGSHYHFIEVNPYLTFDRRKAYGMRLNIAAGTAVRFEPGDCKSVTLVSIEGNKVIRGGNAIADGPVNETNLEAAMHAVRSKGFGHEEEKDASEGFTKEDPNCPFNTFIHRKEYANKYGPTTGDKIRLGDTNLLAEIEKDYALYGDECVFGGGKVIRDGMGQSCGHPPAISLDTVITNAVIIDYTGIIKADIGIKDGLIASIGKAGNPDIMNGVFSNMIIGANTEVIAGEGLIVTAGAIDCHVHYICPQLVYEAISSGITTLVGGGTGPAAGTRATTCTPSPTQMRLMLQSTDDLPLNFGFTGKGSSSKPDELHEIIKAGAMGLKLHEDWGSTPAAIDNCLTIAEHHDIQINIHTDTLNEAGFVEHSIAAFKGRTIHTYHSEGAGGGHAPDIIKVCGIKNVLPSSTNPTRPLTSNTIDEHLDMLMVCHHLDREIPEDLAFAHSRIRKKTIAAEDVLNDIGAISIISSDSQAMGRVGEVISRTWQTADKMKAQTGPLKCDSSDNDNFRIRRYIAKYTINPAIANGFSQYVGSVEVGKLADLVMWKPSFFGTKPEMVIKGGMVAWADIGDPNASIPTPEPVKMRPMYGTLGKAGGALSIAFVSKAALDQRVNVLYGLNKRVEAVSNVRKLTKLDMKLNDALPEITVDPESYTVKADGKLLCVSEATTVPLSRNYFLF

**Q.** Which results are given for `NP(N)(=O)NC(=O)c1ccccc1` [Control Compound, N-(diaminophosphinyl)benzamide, reference compound]?
**A.** IC50 [1]: 600 nM; IC50 [2]: 18 nM; IC50 [3]: 13 nM; dose excreted at 24 h [4]: 21 ± 2.7%; Weight of calculi (Average ± S.E.) ([5]; 12.5 mg/kg per day): 22.5 ± 4.0 mg

**Q.** For `CC(C)CCCC(C)CC(=O)NP(N)(N)=O` (stereo not shown) [Compound D, N-(diaminophosphinyl)-3,7-dimethyloctanamide], which IC50 [1] is on record?
**A.** 870 nM

**Q.** And the IC50 [2]?
**A.** 14 nM

**Q.** Which IC50 [1] does the source give for `CC(C)=CC(=O)NP(N)(N)=O` [Compound A, N-(diaminophosphinyl)-3-methyl-2-butenamide] here?
**A.** 630 nM

**Q.** And the IC50 [2]?
**A.** 18 nM

**Q.** What about the IC50 [3] of the same compound?
**A.** 16 nM

**Q.** What about the dose excreted at 24 h [4] of the same compound?
**A.** 29.6 ± 2.1%

**Q.** What about the “Weight of calculi (Average ± S.E.)” value ([5]; 12.5 mg/kg per day) of the same compound?
**A.** 10.7 ± 3.9 mg

**Q.** And the “Weight of calculi (Average ± S.E.)” value ([5]; 50 mg/kg per day)?
**A.** 10.9 ± 2.8 mg

**Q.** What about the “Acute toxicity, in words” value ([6]; S.D. rats) of the same compound?
**A.** only a very low toxitity

**Q.** What about the LD50 ([6]; female S.D. rats (8 weeks old)) of the same compound?
**A.** > 4240 mg/kg

**Q.** And the LD50 ([6]; male S.D. rats (8 weeks old))?
**A.** > 6000 mg/kg

**Q.** Which IC50 [1] does the source give for `CC(=CC(=O)NP(N)(N)=O)CCCC(C)C` [Compound B, N-(diaminophosphinyl)-3,7-dimethyl-2-octenamide] here?
**A.** 5200 nM

**Q.** What about the IC50 [2] of the same compound?
**A.** 15 nM

**Q.** And the IC50 [3]?
**A.** 16 nM

**Q.** Which results are given for `CC(C)CC(=O)NP(N)(N)=O` [Compound C, N-(diaminophosphinyl)-3-methylbutanamide]?
**A.** IC50 [1]: 1600 nM; IC50 [2]: 68 nM; IC50 [3]: 61 nM
